Experimental findings from patent publication US20130158024A1, “TRICYCLIC NECROSTATIN COMPOUNDS” (priority 2005, published 2013) are described below.

Entries after “also recorded” stand apart in the source; their conditions may differ.

Data set [1] relates to RIP kinase-induced necroptosis in FADD-deficient Jurkat cells. Description: Necroptosis induced by dimerized RIP kinase in FADD-deficient Jurkat cells, FACS. Format: cell-based, human. The settings on record: dimerizer AP1510, zVAD.fmk, 48 hours. The method, then:
Percentage of PI-negative, GFP-positive cells (“Viability, %”) was determined by FACS. Numbers represent viability normalized to that of the compound-treated cells in the absence of dimerizer. Error bars represent standard deviations.

A further data set deals with B cell. The data set can be described thus: B cell activation (LPS/IL-4) of splenocytes suppressed by zVAD.fmk, FACS. Format: cell-based, mouse. Conditions: 100 μM zVAD.fmk, 30 μM compound, 72 hours. Here is the method: Cells were stained with αB220-FITC antibody (Pharmingen), and B cell numbers were determined by FACS. Cell numbers are normalized to the number of cells in unstimulated control, which was set as 100%.

Data set [2] deals with Primary mouse CD4+ and CD8+ T cells. The data set can be described thus: Activation-induced cell death (AICD) of primary CD4+ and CD8+ T cells. Format: cell-based. Here is the method:
Cell viability was assessed using Sytox Green (Molecular Probes) (CD8) or propidium iodide exclusion (CD4) assays in FIG. 17A or ATP assay in FIG. 17B. Numbers represent the percentages of live cells normalized to the corresponding compound treated controls lacking αCD3.

A further data set deals with T1, RIP2 (Homo sapiens, UniProt O43353).
T1 construct: expressed in transfected cells; host or cells: 293T
The data set can be described thus: In vitro kinase assay: autophosphorylation of RIP2. Format: biochemical. The settings on record: RIP2-Myc from transfected 293T cells. From the text:
293T cells were transfected with RIP-FLAG or RIP2-Myc vectors. […] Major bands corresponding to phosphorylated RIP, RIP2, asterisks, and IgG are shown.

The next data set relates to Jurkat cells. Description: Apoptosis of Jurkat cells induced by FasL without or with cycloheximide. Format: cell-based, human. The settings on record: FasL or FasL/CHX, no zVAD. Here is the method:
Jurkat cells were treated with 5 ng/ml of FasL without (A) or with cyclohexamide (CHX) (B) to induce apoptosis, or 5 ng/ml FasL, 1 μg/ml of CHX and 100 μM of zVAD.fmk to induce CICD (B). […] Cell viability was determined after 24 hours of incubation with indicated reagents using CellTiter-Glo ATP assay. The values represent viability relative to the control Jurkat cells without the treatment of FasL, which was set as 100% viability.
Cells were stained with DiOC6 or annexin V and EGFP-PI as described in FIG. 26A and FIG. 26B. […] Cell viability was determined by an ATP assay. Numbers represent viability normalized to that of the compound-treated cells in the absence of TNFα. […]
We seeded cells in 96-well plates (white plates for luminescent assays; black plates for fluorescent assays; clear plates for MTT assay) at the density of 5,000-10,000 cells per well for adherent cells or 20,000-50,000 cells per well for suspension cells in 100 μl of the appropriate phenol red-free media. After incubation, we determined cell viability using one of the following methods. For the ATP assay, we used luminescence-based commercial kits (CellTiter-Glo, Promega or ATPLite-M, PerkinElmer) and analyzed luminescence using a Wallac Victor II plate reader (PerkinElmer). For Sytox assay, we incubated cells with 1 μM Sytox Green reagent for thirty minutes at 37° C., and then performed fluorescent reading. […]

The subject of another data set is healthy cells. The data set can be described thus: Effect of compound alone on physiology of healthy cells (ATP, morphology, cell cycle, mRNA, ROS). Format: cell-based. Here is the method:
Results of the forward and side scatter FACS analysis are shown. In addition, percentage of PI negative viable cells (±SD value) was determined in each sample. […] Numbers of PI negative viable cells (±SD value) in each sample are shown. […] FADD-deficient Jurkat cells were treated as described in FIG. 31A and cell cycle profiles were analyzed by PI DNA content FACS analysis. […] Cell viability was determined using ATP assay. Numbers represent viability normalized to that of the corresponding DMSO-treated cells. Error bars indicate standard deviation values. […] Cells were fixed, embedded and analyzed using electron microscopy. Representative images are shown. […] Cells were stained with dyhydroethydium (Molecular Probes) and analyzed by FACS. Percentages (±SD value) of cells with increased ROS levels are shown. […] Red dots are internal reference controls.
Cells were fixed and stained with anti-giantin (Golgi, green)/anti-KDEL (ER, red) antibodies (FIG. 32A), anti-β-tubulin (tubulin, green)/TO-PRO-3 dye (nuclei, blue)/phalloidin-TRITC (actin, red) (FIG. 32B) and anti-cytochrome c (mitochondria, red)/TO-PRO-3 (nuclei, blue) (FIG. 32C). […]
After the appropriate treatment, we washed Jurkat cells once, resuspended them in PBS, and fixed the cells by adding four volumes of ice cold 100% ethanol. […] We analyzed the data using ModFit software (Verity Software House).

The next data set deals with CD8+ cells. Description: Activation and proliferation of CD8+ cytotoxic T lymphocytes (CTL) suppressed by zVAD.fmk. Format: cell-based, mouse. Conditions: 100 μM zVAD.fmk, 30 μM compound. Here is the method:
Numbers of cells were determined using FACS analyses. Cell numbers are normalized to the number of cells in unstimulated control, which was set as 100%. […] Cells were stained with αCD8^+-FITC antibody (Pharmingen) and CD8^+ cell numbers were determined by FACS. Cell numbers are normalized to the number of cells in unstimulated control, which was set as 100%. Percentages of dead cells (line) was determined by co-staining cells with propidium iodide.
Values represent fold increase over unstimulated control.
Cells were stained with αCD8^+-FITC antibody (Pharmingen), and CD8^+ cell numbers were determined by FACS. Cell numbers are normalized to the number of cells in unstimulated control, which was set as 100%. Percentages of dead cells (line) were determined by co-staining cells with propidium iodide.

T1 sequence (O43353 whole entry, species assumed): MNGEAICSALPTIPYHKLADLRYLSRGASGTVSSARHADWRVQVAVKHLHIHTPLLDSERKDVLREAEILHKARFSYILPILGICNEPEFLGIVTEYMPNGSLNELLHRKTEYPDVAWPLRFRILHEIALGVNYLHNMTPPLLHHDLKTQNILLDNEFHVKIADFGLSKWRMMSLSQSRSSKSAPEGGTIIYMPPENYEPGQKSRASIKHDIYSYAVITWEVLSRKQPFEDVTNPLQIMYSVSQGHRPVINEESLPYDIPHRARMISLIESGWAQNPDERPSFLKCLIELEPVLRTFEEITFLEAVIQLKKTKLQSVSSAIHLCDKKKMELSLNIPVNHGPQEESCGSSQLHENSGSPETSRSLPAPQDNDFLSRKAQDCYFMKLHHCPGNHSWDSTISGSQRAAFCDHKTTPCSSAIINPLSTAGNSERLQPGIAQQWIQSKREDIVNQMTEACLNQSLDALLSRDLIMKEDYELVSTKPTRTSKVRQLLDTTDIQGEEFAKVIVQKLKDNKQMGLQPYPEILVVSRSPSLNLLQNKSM

As for methylthiohydantoin-tryptophane [Nec-1], in data set [1], the “inhibition of RIP kinase-induced necroptosis, in words” value is “inhibits RIP kinase-induced necroptosis; also recorded: inhibited by Nec-1”. Besides, in the data set on B cell, the “B cell activation in the presence of zVAD.fmk, in words” value was “promotes B cell activation; also recorded: attenuated suppression of B cell activation by zVAD.fmk”. Also, in data set [2] (100 μM zVAD.fmk and 30 μM Nec-1, 48 hours), the “effect on AICD together with zVAD.fmk, in words” value was “inhibition of AICD by Nec-1; also recorded: together efficiently abrogated cell death”. The “effect on AICD, compound alone, in words” value in data set [2] (re-activated CD4+ cells) was “displayed very little effect on the viability of re-activated T cells in the absence of zVAD.fmk”. Moreover, at RIP2, the “effect on RIP2 autophosphorylation, in words” value is “lack of a Nec-1 effect on RIP2 autophosphorylation; also recorded: had no effect on RIP2 autophosphorylation”. In the data set on Jurkat cells, the “protection from apoptosis, in words” value is “but not apoptosis induced by FasL or FasL/CHX; also recorded: lack of cytoprotection by Nec-1 in apoptotic Jurkat cells treated with FasL-CHX for 24 hours; also recorded: but not by Nec-1; also recorded: could not be inhibited by Nec-1; also recorded: had no effect on FasL-CHX-induced accumulation of annexin V-positive and propidium iodide (PI)-negative cells”. In the data set with healthy cells, the “general effect in healthy cells, in words” value was “does not significantly affect gene expression in Jurkat cells; also recorded: had no general effect in healthy cells”. In the data set on CD8+ cells, the “restoration of CTL activation/proliferation suppressed by zVAD.fmk, in words” value was “restores normal activation of CTLs inhibited by caspase inhibition; also recorded: restoration of CTL proliferation by Nec-1; also recorded: completely suppressed by Nec-1; also recorded: suppression of cell proliferation was prevented in the presence of Nec-1”.
